The text below walks through data of article PMC10367051, “Comprehensive Mechanistic View of the Hydrolysis of Oxadiazole-Based Inhibitors by Histone Deacetylase 6 (HDAC6)” (ACS Chemical Biology, 2023).

One assay has as its target T1, zHDAC6 (Y745F) (Danio rerio, UniProt F8W4B7, Y745F).
T1 construct: Danio rerio HDAC6 (amino acids 440–798; zHDAC6); His (N, cleaved yes); MBP (N, cleaved yes); made in house; host or cells: RIPL Escherichia coli
T1 sequence (F8W4B7 440-798 Y745F): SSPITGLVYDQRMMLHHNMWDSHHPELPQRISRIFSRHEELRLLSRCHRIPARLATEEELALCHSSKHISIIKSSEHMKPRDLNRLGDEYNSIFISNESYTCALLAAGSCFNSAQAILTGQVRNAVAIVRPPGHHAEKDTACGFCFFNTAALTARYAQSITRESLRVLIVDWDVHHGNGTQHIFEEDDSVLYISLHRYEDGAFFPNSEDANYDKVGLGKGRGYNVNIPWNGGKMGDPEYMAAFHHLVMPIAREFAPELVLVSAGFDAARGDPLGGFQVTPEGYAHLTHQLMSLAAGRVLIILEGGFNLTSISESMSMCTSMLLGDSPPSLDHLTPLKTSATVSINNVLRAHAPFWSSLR
Briefly: Inhibition assay, zebrafish HDAC6 catalytic DD2 domain, Y745F mutant. In kind it is biochemical. The procedure:
The second catalytic domain of Danio rerio HDAC6 (amino acids 440–798; zHDAC6) was expressed in RIPL Escherichia coli as described previously using the pEC566-zHDAC6 expression vector.[16],[38] Briefly, bacteria were incubated at 37 °C with shaking (250 rpm) until the optical density reached an OD600 = 0.5. Then, the culture was cooled to 18 °C for 1 h, and recombinant protein expression was induced by the addition of 75 μM isopropyl β-D-1-thiogalactopyranoside together with 200 μM ZnSO4. The culture was grown at 18 °C for an additional 18 h and harvested by centrifugation at 5500g for 15 min. The cell pellet was resuspended in the lysis buffer (50 mM phosphate, 300 mM NaCl, 10% glycerol, and 20 mM imidazole at pH 8; 5 mL g^–1 bacterial pellet) and lysed by three passages through EmulsiFlex (Avestin). Cell lysates were centrifuged (15,000g at 4 °C for 20 min), and the fusion protein in the supernatant was purified via Ni-NTA chromatography. Fractions containing the His-MBP-HDAC6 fusion were concentrated to 2 mg mL^–1 and cleaved overnight by the addition of TEV protease (zHDAC6/TEV 1:20 ratio). The cleaved tag and the TEV protease were sequentially removed using amylose (New England Biolabs) and HisTrap columns (Cytiva), and zHDAC6 was further purified by size-exclusion chromatography on a HiLoad Superdex 75 pg column (GE Healthcare Bio-Sciences). Fractions containing zHDAC6 were pooled, concentrated to 10 mg mL^–1, flash-frozen in liquid nitrogen, and stored at −80 °C. The purity of protein preparations was monitored by SDS-PAGE (Figure S2).
The zHDAC6 mutants (Y745F and H574A) were constructed using the Quick-change site-directed mutagenesis protocol with the pEC566-zHDAC6 expression plasmid as a template. Both mutants were expressed and purified as described above for wild-type zHDAC6 (Figure S2).
(§1) Optimized fluorometric assays were used to determine inhibition constants of studied compounds against individual HDAC isoforms as described previously.[32] Briefly, reactions were performed in the activity buffer comprising 50 mM HEPES, 140 mM NaCl, and 10 mM KCl at pH 7.4 supplemented with 1 mg mL^–1 bovine serum albumin (BSA), 1 mM tris(2-carboxyethyl)phosphine (TCEP), 10 μM substrates, and optimized concentrations of HDACs. The Ac-Gly-Ala-[Lys-Ac]-7-amino-methylcoumarylamide (AMC) substrate was used to profile HDACs 1, 2, 3, and 6; Boc-[Lys-TFA]-7-amino-methylcoumarylamide was used for HDACs 4, 5, 7, 8, and 9 (both substrates: Bachem); fluorescein-labeled N8-acetylspermidine was used for HDAC10;[32] and an internally quenched TNFα-derived peptide derivative was used for HDAC11.[39] Deacetylation reactions were monitored either by high-performance liquid chromatography (HPLC) (HDAC10) or by quantification of released AMC (λex/λem = 365/440 nm) using a CLARIOstar plate reader (BMG Labtech GmbH).

For a further assay, the target named is T2, HDAC6 (Homo sapiens, UniProt Q9UBN7).
T2 construct: TwinStrep-FLAG-HALO (N, cleaved yes); made in house; host or cells: HEK293/T17
T2 sequence (Q9UBN7 1-1215): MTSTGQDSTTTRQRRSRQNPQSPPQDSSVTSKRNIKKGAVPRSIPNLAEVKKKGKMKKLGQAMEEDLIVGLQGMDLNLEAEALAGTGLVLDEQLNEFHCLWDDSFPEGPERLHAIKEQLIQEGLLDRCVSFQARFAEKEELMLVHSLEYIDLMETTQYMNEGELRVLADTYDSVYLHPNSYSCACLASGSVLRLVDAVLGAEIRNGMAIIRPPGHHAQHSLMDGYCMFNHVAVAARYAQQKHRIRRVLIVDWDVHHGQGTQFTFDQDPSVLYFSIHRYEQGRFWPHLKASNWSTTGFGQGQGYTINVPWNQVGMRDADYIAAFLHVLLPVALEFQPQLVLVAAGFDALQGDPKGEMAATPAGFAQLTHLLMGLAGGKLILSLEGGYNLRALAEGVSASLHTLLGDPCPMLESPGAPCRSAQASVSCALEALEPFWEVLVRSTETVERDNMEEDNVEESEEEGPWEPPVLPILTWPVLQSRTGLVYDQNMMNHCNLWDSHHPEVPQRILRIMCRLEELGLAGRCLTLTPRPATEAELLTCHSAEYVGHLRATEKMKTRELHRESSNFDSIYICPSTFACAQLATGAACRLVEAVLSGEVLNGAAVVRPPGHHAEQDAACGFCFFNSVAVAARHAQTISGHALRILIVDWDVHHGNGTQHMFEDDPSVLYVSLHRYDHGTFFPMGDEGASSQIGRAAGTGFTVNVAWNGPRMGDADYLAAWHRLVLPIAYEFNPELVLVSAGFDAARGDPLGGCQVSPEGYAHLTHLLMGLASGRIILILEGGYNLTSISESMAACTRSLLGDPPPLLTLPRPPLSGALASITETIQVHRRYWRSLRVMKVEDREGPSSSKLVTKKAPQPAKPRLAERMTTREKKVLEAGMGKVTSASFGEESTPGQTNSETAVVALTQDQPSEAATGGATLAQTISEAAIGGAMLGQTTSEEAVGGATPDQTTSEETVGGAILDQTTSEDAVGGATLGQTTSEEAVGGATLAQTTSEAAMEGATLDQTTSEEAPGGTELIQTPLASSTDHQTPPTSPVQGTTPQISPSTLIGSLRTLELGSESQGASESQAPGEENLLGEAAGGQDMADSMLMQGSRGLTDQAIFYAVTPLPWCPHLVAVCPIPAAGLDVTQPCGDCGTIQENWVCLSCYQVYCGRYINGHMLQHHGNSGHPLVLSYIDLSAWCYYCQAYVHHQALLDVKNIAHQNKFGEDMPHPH
In words: Fluorometric HDAC inhibition assay, HDAC6. In kind it is biochemical. Conditions: purified human protein; Ac-Gly-Ala-[Lys-Ac]-AMC substrate 10 μM; 15 min preincubation. The procedure: Large-scale expression of recombinant human HDACs was carried out as described previously.[32],[37] Briefly, HEK293/T17 cells were transiently transfected with expression pMM222 plasmids comprising N-terminally tagged (TwinStrep-FLAG-HALO tag; Figure S1) HDAC genes using linear poly(ethyleneimine) (PEI, Polysciences Inc.). Cells were harvested three days post-transfection, and cell pellets were resuspended in the lysis buffer (100 mM Tris-HCl, 10 mM NaCl, 5 mM KCl, 2 mM MgCl2, and 10% glycerol at pH 8.0). Cells were disrupted by sonication, cell lysates were cleared by centrifugation, and soluble fusion proteins were first purified by Streptactin affinity chromatography (IBA). For all HDACs but HDACs 1, 10, and 11, the N-terminal tag was cleaved off overnight by the addition of TEV protease (10:1 HDAC/TEV ratio). Size-exclusion chromatography on a Superose 6 column (GE Healthcare Bio-Sciences; running buffer 30 mM HEPES, 140 mM NaCl, 10 mM KCl, 3% glycerol, and 0.25 mM TCEP) was used as the final purification step for all HDAC constructs.
as §1

Each structure is given as a SMILES string.

As for `CS(=O)(=O)N(Cc1ccc(-c2nnc(CF)o2)cn1)c1cccc(Cl)c1` [compound 9], the values for the IC50 on zHDAC6 (Y745F) and against HDAC6 were above 20 µM and 0.085 ± 0.0028 µM, respectively.
For `Cc1nnc(-c2ccc(CN(c3cccc(Cl)c3)S(C)(=O)=O)nc2)o1` [compound 10], the IC50 (as a rule, the point on the concentration scale where inhibition reaches its midpoint) against HDAC6 was above 100 µM.
